Holding throughout (experiment): inhibition of tumour cell growth, NCI panel, 48 h
Test [1] concerns MCF7.
For test [2], the system named is ACHN.
Test [3] has as its system SR.
In test [4] the test system is NCI/ADR-RES.
For test [5], the system named is SNB-19.
Test [6] concerns SK-MEL-28.
The test system of test [7] is NCI-H226.
For test [8], the system named is COLO 205.
Test [9] deals with HT-29.
Test [10] deals with HCC 2998.
Test [11] deals with 786-0.
Test [12] has as its system CCRF-CEM.
Test [13] relates to NCI-H460.
The subject of test [14] is HOP-92.
Test [15] has as its system M14.
Test [16] concerns PC-3.
Test [17] deals with SN12C.
The subject of test [18] is HCT-116.
Test [19] has as its system DU-145.
The subject of test [20] is SK-OV-3.

We go through three compounds from ChEMBL document CHEMBL1201862, “PubChem BioAssay data set” (2004).

Molecules are shown by their SMILES.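 Growth conditions: 96-well plates. Treatment: test compound, 48 hours, 5 concentrations. Analysis: linear interpolation between bracketing concentrations; unreached endpoints set to highest concentration. GI50 marks 50% less growth.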 Calls of active or inactive are those of the source. No stated cut-off is given here; in the data, active = GI50 up to about 1.1 µM and inactive = higher.

For `Cc1c(F)c(N)c2c(=O)cc(-c3ccc(N)c(F)c3)oc2c1F` [AMINOFLAVONE], the GI50 is 0.0156 µM (active) in test [1]; 15.7 µM (inactive) in test [2]; 18.7 µM (inactive) in test [3]; 13.9 µM (inactive) in test [4]; 21 µM (inactive) in test [5]; 45.1 µM (inactive) in test [6]. Besides, the GI50 was 3.52 µM (inactive) in [7]; 32.5 µM (inactive) in test [8]; 33.7 µM (inactive) in [9]; 19 µM (inactive) in [10]; 14.2 µM (inactive) in [11]; 28 µM (inactive) in [12]. Further, the GI50 in test [13] is 0.199 µM (active); in test [14], 23 µM (inactive); in test [15] it was 57.3 µM (inactive); in [16], 20.7 µM (inactive); in test [17] it was 17.1 µM (inactive); in test [18], 12.1 µM (inactive). The figures for the GI50 in test [19] and in test [20] were 26.3 µM (inactive) and 17.6 µM (inactive), respectively.
`O=C(O)c1nc(-c2ccccc2)[nH]c1C(=O)O`: the GI50 was 2.32 µM (inactive) in test [1]; 16.8 µM (inactive) in [2]; 0.0188 µM (active) in test [3]; 27.7 µM (inactive) in test [4]; 12.5 µM (inactive) in test [5]; 16.6 µM (inactive) in [6]. Besides, the GI50 in [7] was 14.8 µM (inactive); in test [8], 17 µM (inactive); in [9], 7.03 µM (inactive); in test [10] it was 5.94 µM (inactive); in test [11] it was 10.6 µM (inactive); in test [12] it was 0.577 µM (active). The GI50 in test [13] was 15.4 µM (inactive); in [14], 16.3 µM (inactive); in test [15] it was 10.9 µM (inactive); in test [16], 5.32 µM (inactive); in [17], 13.6 µM (inactive); in test [18], 4.43 µM (inactive). Besides, the values for the GI50 in test [19] and in [20] were 15 µM (inactive) and 18.4 µM (inactive), respectively.
Turning to `C[N+]1(CCCCN2c3ccccc3Sc3cc(N=[N+]=[N-])ccc32)CCN(C(=O)CCNC(=O)Cc2ccc(C(=O)c3ccccc3)cc2)CC1`, the GI50 is 19.7 µM (inactive) in test [1]; 19.2 µM (inactive) in test [2]; 18.7 µM (inactive) in [3]; 35.9 µM (inactive) in [4]; 26.9 µM (inactive) in [5]; 16 µM (inactive) in [6]. Moreover, the GI50 was 36.1 µM (inactive) in [7]; 14.7 µM (inactive) in test [8]; 18.1 µM (inactive) in test [9]; 16.1 µM (inactive) in [10]; 27 µM (inactive) in test [11]; 23.3 µM (inactive) in test [12]. Further, the GI50 in test [13] is 24.6 µM (inactive); in test [14], 18.9 µM (inactive); in test [15], 23.4 µM (inactive); in [16], 20.5 µM (inactive); in test [17] it was 21.2 µM (inactive); in [18] it was 25.9 µM (inactive). Further, the GI50 in test [19] is 19.1 µM (inactive); in test [20] it was 29 µM (inactive).
